Structures can show the parent of a compound that is named as a salt. Some results are limits rather than exact numbers.

Assay type in all cases: biochemical
The target in one test is T1, AKT1 (Homo sapiens, UniProt P31749).
T1 construct: purchased SignalChem
As to the kind of experiment: AKT Kinase Assay (IMAP fluorescent polarisation) vs AKT1. Conditions: activated AKT1, FAM Crosstide substrate. The method, then:
(§1) Testing of the compounds was performed using an AKT Kinase Assay:
(§2) Activated AKT isoforms 1, 2 and 3 were assayed utilising a 5′ FAM Crosstide (Seq. GRPRTSSFAEG-OH). The extent of kinase phosphorylation was determined by fluorescent polarisation using IMAP progressive binding reagent, which introduces binding beads which allow the reagent to specifically bind to phosphate residues via covalent co-ordination complex bonds.
(§3) iMAP binding solution stops Crosstide/kinase interaction and specifically binds phosphorylated substrates. The degree of phosphorylation is determined by fluorescent polarisation (excitation 485 nm; emission 528 nm) or the reduction in speed of rotation of the excited substrate.
(§4) The following materials were used in the assay: • a) Activated AKT isoforms (SignalChem.) dissolved in Complete Reaction buffer at a pre-determined concentration selected so that the assay was carried out in the linear range. • b) AKT substrate peptide: FAM Crosstide (R7110) Molecular Devices, diluted in complete reaction buffer. • c) iMAP Progressive Screening Express Kit (R8127) Molecular Devices • d) Complete Reaction Buffer containing 0.1% BSA, 10 mM Tris-HCl, 10 mM MgCl2, 0.05% NaN3 and 0.01% phosphate free BSA, 1 mM DTT • e) Progressive Binding Solution containing 75% Buffer A, 25% Buffer B and low volume Binding Reagent which contains the binding entity for the assay • f) ATP diluted in complete reaction buffer • g) Black polystyrene 384 well assay plates (Nunc). • h) Biotek Synergy 4 Hybrid Plate reader.
(§5) 50 μl of test compound was dissolved in DMSO (Sigma Aldrich) and serially diluted in complete reaction buffer to give a fourteen point half log dose response and plated into 384 well black plates. The compound was incubated at room temperature with activated AKT isoform ([…]) at the pre-determined concentration, for 45 minutes.
(§6) […] of ATP solution mixed with 2.5 μl of AKT substrate peptide (FAM Crosstide (R7110) Molecular Devices) were dispensed into each well and the plate centrifuged at 1000 rpm for 20 seconds to ensure homogenous mixing of reagents. The reaction mix was incubated in the dark for one hour at room temperature.
(§7) The kinase reaction was stopped by the addition of Progressive Binding Solution and the mixture allowed to equilibrate for one hour in the dark, at room temperature.
(§8) The fluorescent polarisation generated in each well was determined using a […] Synergy 4 Hybrid plate reader. In brief, each reaction solution was excited at 485 nm with the emission measured at 528 nm in both the parallel and perpendicular pathway.
(§9) The polarisation value generated in each well was calculated by Gen5 software (Biotek) and the % inhibition of kinase activity compared to vehicle control was calculated via GraphPad Prism. IC50 values for each compound were calculated by non-linear regression analysis using Prism software.
(§10) All plates were internally controlled by two methods. Firstly, by calculating the signal:noise ratio; based on kinase polarisation without inhibitor and polarisation generated by complete reaction buffer in the absence of activated kinase. Secondly by determining IC50 values generated by known inhibitors of the AKT isoforms.

The next test has as its target T2, AKT2 (Homo sapiens, UniProt P31751).
T2 construct: purchased SignalChem
Description: AKT Kinase Assay (IMAP fluorescent polarisation) vs AKT2. Conditions: activated AKT2, FAM Crosstide substrate. The procedure: as §1, §2, §3, §4, §5, §6, §7, §8, §9, §10

Another test concerns the target T3, AKT3 (Homo sapiens, UniProt Q9Y243).
T3 construct: purchased SignalChem
As to the kind of experiment: AKT Kinase Assay (IMAP fluorescent polarisation) vs AKT3. The conditions noted are these: activated AKT3, FAM Crosstide substrate. The procedure: as §1, §2, §3, §4, §5, §6, §7, §8, §9, §10

T1 sequence (P31749 whole entry): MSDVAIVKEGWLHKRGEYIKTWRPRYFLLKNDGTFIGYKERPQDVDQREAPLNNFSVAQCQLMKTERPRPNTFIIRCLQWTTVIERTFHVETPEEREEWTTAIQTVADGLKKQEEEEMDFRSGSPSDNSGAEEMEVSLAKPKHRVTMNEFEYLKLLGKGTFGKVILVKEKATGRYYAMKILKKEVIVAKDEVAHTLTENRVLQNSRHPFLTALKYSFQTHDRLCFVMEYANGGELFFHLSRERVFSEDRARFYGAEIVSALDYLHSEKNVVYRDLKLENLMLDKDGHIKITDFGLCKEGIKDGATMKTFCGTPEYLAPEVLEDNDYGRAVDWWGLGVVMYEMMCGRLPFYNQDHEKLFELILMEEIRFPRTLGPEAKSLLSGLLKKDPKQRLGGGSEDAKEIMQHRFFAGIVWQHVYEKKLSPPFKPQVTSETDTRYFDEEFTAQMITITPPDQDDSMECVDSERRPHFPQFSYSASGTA
T2 sequence (P31751 whole entry): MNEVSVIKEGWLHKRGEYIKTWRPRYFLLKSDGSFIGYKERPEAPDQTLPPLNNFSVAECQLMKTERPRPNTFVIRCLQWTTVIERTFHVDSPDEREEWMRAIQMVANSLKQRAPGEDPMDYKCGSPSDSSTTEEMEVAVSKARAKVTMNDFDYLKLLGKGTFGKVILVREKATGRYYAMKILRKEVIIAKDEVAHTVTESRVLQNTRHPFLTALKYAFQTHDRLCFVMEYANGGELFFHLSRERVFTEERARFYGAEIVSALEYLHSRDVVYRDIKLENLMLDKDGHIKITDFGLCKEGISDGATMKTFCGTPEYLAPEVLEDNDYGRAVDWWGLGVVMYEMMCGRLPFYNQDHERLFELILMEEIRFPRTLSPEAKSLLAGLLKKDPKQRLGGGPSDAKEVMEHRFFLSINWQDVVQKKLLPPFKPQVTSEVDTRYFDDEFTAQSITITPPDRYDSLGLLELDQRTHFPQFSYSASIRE
T3 sequence (Q9Y243 whole entry): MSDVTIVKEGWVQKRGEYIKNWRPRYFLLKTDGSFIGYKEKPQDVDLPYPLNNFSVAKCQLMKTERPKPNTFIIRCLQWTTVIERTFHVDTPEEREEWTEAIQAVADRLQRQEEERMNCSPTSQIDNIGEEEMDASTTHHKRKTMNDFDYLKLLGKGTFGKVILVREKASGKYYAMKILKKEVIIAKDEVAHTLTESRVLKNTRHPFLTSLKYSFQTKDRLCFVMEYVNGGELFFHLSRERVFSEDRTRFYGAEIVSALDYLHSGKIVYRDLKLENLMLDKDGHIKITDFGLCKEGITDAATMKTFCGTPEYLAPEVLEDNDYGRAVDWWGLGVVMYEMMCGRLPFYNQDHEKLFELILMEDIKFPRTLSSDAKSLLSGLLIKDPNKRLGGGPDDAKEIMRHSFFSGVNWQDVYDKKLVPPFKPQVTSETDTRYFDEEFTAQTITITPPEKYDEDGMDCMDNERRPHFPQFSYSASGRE

By IC50 is commonly meant the concentration that inhibits the measured activity by half. Take `CNc1nc2oc(-c3ccc(C4(N)CCC4)cc3)c(-c3ccccc3)c2c(=O)n1C` [Example 65, 6-(4-(1-Aminocyclobutyl)phenyl)-3-methyl-2-(methylamino)-5-phenylfuro[2,3-d]pyrimidin-4(3H)-one hydrochloride]: the IC50 at AKT1 lay in the range of 100 to 1000 nM; at AKT2 it was 100 to 1000 nM; on AKT3, 1000 to 10000 nM.
Regarding `NC1(c2ccc(-c3oc4ncc(CO)nc4c3-c3ccccc3)cc2)CCC1` [Example 145, (6-(4-(1-Aminocyclobutyl)phenyl)-7-phenylfuro[2,3-b]pyrazin-2-yl)methanol], the results for the IC50 at AKT1, on AKT2 and on AKT3 were 1000 to 10000 nM, 1000 to 10000 nM and greater than 10000 nM, respectively.
For the compound `Cn1c(=O)[nH]c2oc(-c3ccc(C4(N)CCC4)cc3)c(-c3ccccc3)c2c1=O` [Example 124, 6-(4-(1-Aminocyclobutyl)phenyl)-3-methyl-5-phenylfuro[2,3-d]pyrimidine-2,4(1H,3H)-dione hydrochloride], the results for the IC50 at AKT1, on AKT2 and at AKT3 were 100 to 1000 nM, 100 to 1000 nM and greater than 10000 nM, respectively.
As to `Cn1c(N2CCC(O)CC2)nc2oc(-c3ccc(C4(N)CCC4)cc3)c(-c3ccccc3)c2c1=O` [Example 59, 6-(4-(1-Aminocyclobutyl)phenyl)-2-(4-hydroxypiperidin-1-yl)-3-methyl-5-phenylfuro[2,3-d]pyrimidin-4(3H)-one hydrochloride], the IC50 is 100 to 1000 nM at AKT1, no more than 100 nM at AKT2 and 1000 to 10000 nM on AKT3.
Consider `Cn1c(N2CC(O)C2)nc2oc(-c3ccc(C4(N)CCC4)cc3)c(-c3ccccc3)c2c1=O` [Example 61, 6-(4-(1-Aminocyclobutyl)phenyl)-2-(3-hydroxyazetidin-1-yl)-3-methyl-5-phenylfuro[2,3-d]pyrimidin-4(3H)-one], for which the IC50 on AKT1 fell in the range of 100 to 1000 nM; at AKT2, 100 to 1000 nM; on AKT3, 1000 to 10000 nM.
In the case of `NC1(c2ccc(-c3oc4ccn(CC(F)(F)F)c(=O)c4c3-c3ccccc3)cc2)CCC1` [Example 109, 2-(4-(1-Aminocyclobutyl)phenyl)-3-Phenyl-5-(2,2,2-trifluoroethyl)furo[3,2-c]pyridin-4(5H)-one, HCl], the IC50 is 1000 to 10000 nM at AKT1, no more than 100 nM at AKT2 and greater than 10000 nM at AKT3.
On the same counts, the results for `NC(=O)c1ccc2oc(-c3ccc(C4(N)CCC4)cc3)c(-c3ccccc3)c2c1` [Example 7, 2-(4-(1-Aminocyclobutyl)phenyl)-3-phenylbenzofuran-5-carboxamide] are 100 to 1000 nM, 100 to 1000 nM and greater than 10000 nM.
On the same counts, the results for `Cn1c(NCCO)nc2oc(-c3ccc(C4(N)CCC4)cc3)c(-c3ccccc3)c2c1=O` [Example 64, 6-(4-(1-Aminocyclobutyl)phenyl)-2-(2-hydroxyethylamino)-3-methyl-5-phenylfuro[2,3-d]pyrimidin-4(3H)-one hydrochloride] are no more than 100 nM, 100 to 1000 nM and 1000 to 10000 nM.
Turning to `COc1nc(NC(C)=O)nc2oc(-c3ccc(C4(N)CCC4)cc3)c(-c3ccccc3)c12` [Example 48, N-(6-(4-(1-Aminocyclobutyl)phenyl)-4-methoxy-5-phenylfuro[2,3-d]pyrimidin-2-yl)acetamide], the figures for the IC50 on AKT1, at AKT2 and on AKT3 were no more than 100 nM, 100 to 1000 nM and 100 to 1000 nM, respectively.
In the case of `COc1ncnc2oc(-c3ccc(C4(N)CCC4)cc3)c(-c3ccccc3)c12` [Example 78, 1-(4-(4-Methoxy-5-phenylfuro[2,3-d]pyrimidin-6-yl)phenyl)cyclobutanamine], the concentration for half-maximal inhibition (IC50) on AKT1 is no more than 100 nM; at AKT2, 100 to 1000 nM; at AKT3, greater than 10000 nM.
On to `CN(C)c1nc(NCCO)nc2oc(-c3ccc(C4(N)CCC4)cc3)c(-c3ccccc3)c12` [Example 70, 2-(6-(4-(1-Aminocyclobutyl)phenyl)-4-(dimethylamino)-5-phenylfuro[2,3-d]pyrimidin-2-ylamino)ethanol, HCl], for which the IC50 on AKT1 is 1000 to 10000 nM; on AKT2 it was 1000 to 10000 nM; at AKT3, greater than 10000 nM.
Take `NC1(c2ccc(-c3oc4nc(NCCO)nc(NCCO)c4c3-c3ccccc3)cc2)CCC1` [Example 77, 2,2′-((6-(4-(1-Aminocyclobutyl)phenyl)-5-phenylfuro[2,3-d]pyrimidine-2,4-diyl)bis(azanediyl))diethanol]: the figures for the IC50 at AKT1, on AKT2 and at AKT3 were 100 to 1000 nM, 100 to 1000 nM and greater than 10000 nM, respectively.
With `CNc1nc(SC)nc2oc(-c3ccc(C4(N)CCC4)cc3)c(-c3ccccc3)c12` [Example 68, 6-(4-(1-Aminocyclobutyl)phenyl)-N-methyl-2-(methylthio)-5-phenylfuro[2,3-d]pyrimidin-4-amine, HCl], the IC50 at AKT1, on AKT2 and on AKT3 was 100 to 1000 nM each time.
As to `COc1nccc2c(I)c(-c3ccc(C4(N)CCC4)cc3)oc12` [Example 127, 1-(4-(3-Iodo-7-methoxyfuro[2,3-c]pyridin-2-yl)phenyl)cyclobutanamine], the results for the IC50 at AKT1, at AKT2 and at AKT3 were greater than 10000 nM, 1000 to 10000 nM and greater than 10000 nM, respectively.
`NC1(c2ccc(-c3oc4ncc(Br)cc4c3-c3ccccc3)cc2)CCC1` [Example 11, 1-(4-(5-Bromo-3-phenylfuro[2,3-b]pyridin-2-yl)phenyl)cyclobutanamine.HCl]: the IC50 on AKT1, at AKT2 and on AKT3 was greater than 10000 nM each time.
Regarding `Cc1nc(NCCO)nc2oc(-c3ccc(C4(N)CCC4)cc3)c(-c3ccccc3)c12` [Example 72, 2-((6-(4-(1-Aminocyclobutyl)phenyl)-4-methyl-5-phenylfuro[2,3-d]pyrimidin-2-yl)amino)ethanol], the IC50 at AKT1 was 100 to 1000 nM; at AKT2, 100 to 1000 nM; at AKT3, 1000 to 10000 nM.
As for `CNc1nc(OCCF)c2c(-c3ccccc3)c(-c3ccc(C4(N)CCC4)cc3)oc2n1` [Example 89, 6-(4-(1-Aminocyclobutyl)phenyl)-4-(2-fluoroethoxy)-N-methyl-5-phenylfuro[2,3-d]pyrimidin-2-amine, HCl], the figures for the IC50 at AKT1, on AKT2 and at AKT3 were 100 to 1000 nM, 100 to 1000 nM and 1000 to 10000 nM, respectively.
Take `NC1(c2ccc(-c3oc4ncc(-c5cncnc5)nc4c3-c3ccccc3)cc2)CCC1` [Example 140, 1-(4-(7-Phenyl-2-(pyrimidin-5-yl)furo[2,3-b]pyrazin-6-yl)phenyl)cyclobutanamine]: the half-maximal inhibitory concentration (IC50) at AKT1 was 1000 to 10000 nM; on AKT2, 100 to 1000 nM; on AKT3, greater than 10000 nM.
The like results for `Cc1nc2oc(-c3ccc(C4(N)CCC4)cc3)c(-c3ccccc3)c2c(=O)n1CC(F)(F)F` [Example 123, 6-(4-(1-Aminocyclobutyl)phenyl)-2-methyl-5-phenyl-3-(2,2,2-trifluoroethyl)furo[2,3-d]pyrimidin-4(3H)-one] were, in that order, 100 to 1000 nM, no more than 100 nM and 1000 to 10000 nM.
As for `COc1nc(NCCN2CCN(C)CC2)nc2oc(-c3ccc(C4(N)CCC4)cc3)c(-c3ccccc3)c12` [Example 34, 6-(4-(1-Aminocyclobutyl)phenyl)-4-methoxy-N-(2-(4-methylpiperazin-1-yl)ethyl)-5-phenylfuro[2,3-d]pyrimidin-2-amine], the IC50 is no more than 100 nM on AKT1, 100 to 1000 nM on AKT2 and 1000 to 10000 nM at AKT3.
For the compound `COCCNc1nc2oc(-c3ccc(C4(N)CCC4)cc3)c(-c3ccccc3)c2c(=O)n1C` [Example 83, 6-(4-(1-Aminocyclobutyl)phenyl)-2-(2-methoxyethylamino)-3-methyl-5-phenylfuro[2,3-d]pyrimidin-4(3H)-one], the IC50 on AKT1 was in the range of 100 to 1000 nM; at AKT2, 1000 to 10000 nM; at AKT3, 1000 to 10000 nM.
`NC1(c2ccc(-c3oc4c(=O)n(CCCO)ccc4c3-c3ccccc3)cc2)CCC1` [Example 131, 2-(4-(1-Aminocyclobutyl)phenyl)-6-(3-hydroxypropyl)-3-phenylfuro[2,3-c]pyridin-7(6H)-one]: the results for the IC50 at AKT1, on AKT2 and at AKT3 were 1000 to 10000 nM, 100 to 1000 nM and 1000 to 10000 nM, respectively.

The values above are taken from patent publication US20120309739A1, “AKT / PKB INHIBITORS” (ALMAC DISCOVERY LIMITED, priority 2009, published 2012).
